From publication PMC10840383, “Clinical features, functional consequences, and rescue pharmacology of missense GRID1 and GRID2 human variants” (Human Molecular Genetics, 2023)
Positions count from the first letter of the chain named. Several values for one entry are separate records, joined by “and”; a condition that tells them apart may be missing. Equal entries are not always repeated. Where two headings read alike, the source gives them in different places.

Tests used:
[1] = molecular target: T1, GluD2-L656V (Rattus norvegicus, UniProt Q63226, L656V); experiment: TEVC of constitutive current, Xenopus oocytes expressing GluD2-L656V; format: cell-based
T1 construct: expressed in transfected cells; host or cells: Xenopus laevis oocytes injected with cRNA
T1 sequence (Q63226 24-1007 L656V): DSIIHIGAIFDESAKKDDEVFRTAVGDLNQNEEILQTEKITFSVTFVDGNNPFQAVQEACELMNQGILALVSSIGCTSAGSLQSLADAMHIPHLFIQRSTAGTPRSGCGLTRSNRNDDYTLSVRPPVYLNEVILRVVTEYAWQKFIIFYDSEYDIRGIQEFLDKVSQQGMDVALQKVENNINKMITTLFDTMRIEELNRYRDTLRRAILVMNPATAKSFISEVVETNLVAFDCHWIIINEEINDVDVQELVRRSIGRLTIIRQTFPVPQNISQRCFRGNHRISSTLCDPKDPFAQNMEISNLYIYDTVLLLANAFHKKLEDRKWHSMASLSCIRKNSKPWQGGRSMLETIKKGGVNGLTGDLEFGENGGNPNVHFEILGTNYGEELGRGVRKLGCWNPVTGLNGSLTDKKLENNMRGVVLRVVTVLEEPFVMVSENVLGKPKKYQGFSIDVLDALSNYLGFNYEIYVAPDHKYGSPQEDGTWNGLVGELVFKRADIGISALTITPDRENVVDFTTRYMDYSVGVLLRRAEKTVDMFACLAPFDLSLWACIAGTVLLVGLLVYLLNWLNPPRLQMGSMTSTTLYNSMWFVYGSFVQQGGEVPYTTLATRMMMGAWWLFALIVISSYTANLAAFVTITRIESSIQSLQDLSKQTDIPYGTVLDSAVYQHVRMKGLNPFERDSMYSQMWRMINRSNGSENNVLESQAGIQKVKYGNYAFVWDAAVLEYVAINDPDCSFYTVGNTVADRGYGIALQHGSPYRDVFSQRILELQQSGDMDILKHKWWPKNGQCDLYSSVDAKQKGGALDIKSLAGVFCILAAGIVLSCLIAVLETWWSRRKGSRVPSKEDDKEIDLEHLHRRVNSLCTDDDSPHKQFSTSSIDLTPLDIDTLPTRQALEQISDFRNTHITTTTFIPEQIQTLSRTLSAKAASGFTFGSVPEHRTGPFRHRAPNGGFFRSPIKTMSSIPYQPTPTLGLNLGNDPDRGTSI

[2] = molecular target: T2, GluD2-T649A (Rattus norvegicus, UniProt Q63226, T649A); experiment: TEVC of constitutive current, Xenopus oocytes expressing GluD2-T649A; format: cell-based; settings: for IC50: read-out: Pentamidine IC50
T2 construct: expressed in transfected cells; host or cells: Xenopus laevis oocytes injected with cRNA
T2 sequence (Q63226 24-1007 T649A): T1 sequence (Q63226 24-1007 L656V) with T626A, V633L

[3] = normalized to NMDG+ − Na+ difference current
[4] = potentiation of constitutive current, read-out: Ca2+ EC50 [95% CI]
[5] = read-out: Ca2+ potentiation EC50
[6] = 10 mM D-serine, positive = increase, negative = decrease of activity
[7] = percent of constitutive leak current (NMDG+/Na+ difference current)
[8] = 100 μM pentamidine, positive = increase, negative = decrease of activity

Which “Ca2+ % Max (NMDG+ − Na+) Mean ± SEM” value [1, 3] does the source give for `[Ca+2]` [Ca^2+] here?
Its value is 260 ± 9.9 (11) %.

And the EC50 [1, 4]?
Its EC50 is 170 µM.

What about the “Ca2+ EC50 A654T/EC50 variant” value ([1]; ratio) of the same molecule?
Its value is 0.88.

And the EC50 [1, 5]?
The EC50 was 100 to 400 µM.

What about the “Ca2+ EC50 of the relation Ca2+ concentration vs D-serine IC50” value ([2]; Hill fit, Fig. S7A) of the same molecule?
Its value is 630 µM.

And the “Hill slope of the relation Ca2+ concentration vs D-serine IC50” value ([2]; Hill fit, Fig. S7A)?
Its value is 1.4.

What about the “Ca2+ % Max (NMDG+ − Na+) Mean ± SEM” value [2, 3] of the same molecule?
The value was 345 ± 55 (10) %.

And the EC50 [2, 4]?
Its EC50 is 290 µM.

And the “Ca2+ EC50 A654T/EC50 variant” value ([2]; ratio)?
Its value is 0.52.

What about the EC50 [2, 5] of the same molecule?
The EC50 was 100 to 400 µM.

What does the source list for `N[C@H](CO)C(=O)O` [D-serine]?
Reduction of maximum possible activity (Na+ −NMDG+ difference current) by D-serine ([1]; 10 mM D-serine): ~ 50%; D-Serine effect (Baseline −10 mM D-Serine) [1, 6]: −460 ± 53 (12) nA; D-serine % Max (NMDG+ − Na+) Mean ± SEM [1, 7]: 62 ± 3.2 (14) %; D-serine Hill slope ([2]; 1 mM Ca2+, Fig. S7B): 2.0; D-serine Maximum ([2]; 1 mM Ca2+, Fig. S7B): 54%; D-Serine effect (Baseline −10 mM D-Serine) [2, 6]: −35 ± 5.6 (14) nA; D-serine % Max (NMDG+ − Na+) Mean ± SEM [2, 7]: 49 ± 2.5 (7) %

For `N=C(N)c1ccc(OCCCCCOc2ccc(C(=N)N)cc2)cc1` [Pentamidine, pentamidine], which “Pentamidine effect (Baseline −100 μM Pentamidine)” value [1, 8] is on record?
The value was −640 ± 190 (12) nA.

And the IC50 ([1]; read-out: Pentamidine IC50)?
Its IC50 is 10 µM.

What about the “Pentamidine effect (Baseline −100 μM Pentamidine)” value [2, 8] of the same molecule?
Its value is −18 ± 4.8 (14) nA.

And the “Fold increase in pentamidine potency on GluD2-T649A compared to GluD2-A654T” value ([2]; IC50 comparison)?
Its value is ~ 200 fold and > 200 fold.

And the IC50 ([2]; inhibition of constitutive channels)?
The IC50 was 0.037 µM.

And the IC50 ([2]; inhibition of constitutive current, 1 mM Ca2+)?
Its IC50 is 0.036 µM.
